Source: patent US7771713B2, “Chemical composition that attract arthropods” (priority 1999, dated 2010)

Tests used:
[1] = tested on: Aedes aegypti; assay: Olfactometer attraction test, treatment port vs control port, approximately 75 female mosquitoes; assay type: in vivo; conditions: for Δ [(Resp with LA) − Resp] (%): difference between response with L-lactic acid and response alone; for Response with Ace (%): base compound together with acetone; for Δ [(Resp with Ace) − Resp] (%): difference between response with acetone and response alone
Procedure: The tests were conducted in an olfactometer (55 ft^3/min airflow, 80° F., 60% R.H.) as described by Posey, J. Med. Entomol., 35, 330-334 (1998); and LA is lactic acid. Mosquitoes were allowed to settle at least one hour prior to testing. The olfactometer was cleaned after each battery of tests. Each battery consisted of three tests, conducted at 08:30, 11:00 and 13:00 hours local time. Each of the three tests was conducted in a separate cage. The control consisted of identical sample delivery devices and conditions compared to that of the treatment side. Both the treatment and control ports were opened and closed simultaneously when inserting a new treatment/control.

[2] = tested on: Anopheles albimanus; assay: Olfactometer attraction test of compounds and compositions; assay type: in vivo;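 note: olfactometer with a treatment port and a matching control port using identical delivery device and conditions, both opened together, three tests per battery, each run in its own cage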
[3] = compound 500 μL together with L-lactic acid
[4] = compound alone, high dose of 500 μL
[5] = no Base, Activator1 dose 500, 60 mL glass petri dish
[6] = single compound, dose 500 (μL), 60 mL glass petri dish, Aedes aegypti attraction
[7] = base compound alone (mode of action similar to lactic acid)

SMILES	Response with L-LA (%) [1, 3]	Response (%) [1, 4]	Δ [(Resp with LA) − Resp] (%) [1]	% caught ([2]; single treatment, 500 μL)	also measured
C=CSCC [ethyl vinyl sulfide]	55%	18%	37%	25.4%	Response Avg % [1, 5]: 18.0%
ClC(Cl)Cl [chloroform]	76%	24%	52%	–	% caught ([2]; in vivo): 78.7%
CCCCCC(C)=O [2-heptanone]	42%	17%	25%	10.4%	–
CCCCC/C=C/C(C)=O [t-3-Nonen-2-one]	–	–	–	10.7%	–
CC(=O)CCC(C)C [5-Methyl-2-Hexanone]	–	–	–	11.7%	–
C=CC(C)=O [3-buten-2-one]	39%	31%	8%	45.2%	caught in CK (check or control port), with L-LA ([1]; compound 500 μL with L-lactic acid in treatment port, mosquitoes in control port): 51%; caught in CK (check or control port) ([1]; compound alone 500 μL in treatment port, mosquitoes in control port): 61%; Response Avg % [1, 5]: 31.0%
CC(=O)C=CC=C(C)C [6-Methyl-3,5-Heptadien-2-one]	–	–	–	18.7%	–
C=CC(O)CCCC (stereo not shown) [1-hepten-3-ol]	15%	10%	5%	–	attraction of various mixtures and items ([1]; default LA 200 μg, other chemicals 500 μL unless specified, containers as in the label): 7%
CC(=O)O [Acetic Acid]	–	–	–	2.7%	–
CCCCCC(=O)CC [3-Octanone]	–	–	–	25.0%	–
CC(=O)C=C(C)C [Mesityl Oxide]	–	–	–	28.4%	–
CCSSCC [diethyl disulfide]	49%	33%	16%	2.8%	–
CCCCCCCCC(C)=O [2-decanone]	24%	14%	10%	4.0%	–
CC=CC(C)=O [3-penten-2-one]	49%	11%	38%	–	–
c1ccc2[nH]ccc2c1 [Indole]	–	–	–	1.3%	–
Cn1cccc1 [1-Methylpyrrole]	–	–	–	10.7%	–
CCCCCCCCCCC(C)=O [2-Dodecanone]	–	–	–	1.4%	–
CCCCCCCC(=O)CC [3-Decanone]	–	–	–	9.3%	–
CC#N [acetonitrile]	81%	27%	54%	–	–
N#Cc1ccccc1 [benzonitrile]	48%	4%	42%	3.8%	Response Avg % [1, 6]: 4.0%
ClC(Cl)=C(Cl)Cl [Tetrachloroethylene]	–	–	–	17.3%	–
C=O [Formaldehyde]	–	–	–	–	Response Avg % [1, 6]: 1.0%

SMILES	Response with L-LA (%) [1, 3]	Response (%) [1, 4]	Δ [(Resp with LA) − Resp] (%) [1]	% caught ([2]; single treatment, 500 μL)	also measured
CCCC(=O)CC [3-hexanone]	39%	1%	38%	8.3%	Response Avg % [1, 6]: 1.0%
CCC(C)=O [2-butanone]	81%	28%	53%	47.9%	–
S=C=S [carbon disulfide]	89%	82%	7%	56.0%	–
c1ccsc1 [Thiophene]	–	–	–	68.0%	–
CC(C)=CC(=O)C=C(C)C [Phorone]	–	–	–	50.6%	–
CCCCC(C)=O [2-hexanone]	51%	3%	48%	4.3%	Response Avg % [1, 6]: 3.0%
C[S+](C)[O-] [dimethyl sulfoxide]	30%	3%	27%	–	–
CCCCC [Pentane]	–	–	–	2.7%	–
CCCCCCCC(C)=O [2-nonanone]	12%	8%	4%	27.0%	–
CCO [ethanol]	57%	9%	48%	–	–
O=C=O [carbon dioxide, reference compound]	–	–	–	–	Response Avg % ([1]; CO2 alone, dose 0.5, Aedes aegypti attraction): 4.0%; Response with L-LA (%) ([1]; carbon dioxide 5 ml/min with L-lactic acid): 68%
C[S+](C)[O-] [Dimethylsulfoxide]	–	–	–	–	Response Avg % [1, 6]: 3.0%
CC(=O)CC(C)C [4-methyl-2-pentanone]	64%	0%	64%	1.3%	Response Avg % [1, 6]: 0.0%
CC1=CC(=O)CC(C)(C)C1 [Isophorone]	–	–	–	13.3%	–
CCCCCCCCC=O [nonanal]	–	–	10%	–	–
CCCSSC [methyl propyl disulfide]	40%	19%	21%	12.3%	–
CCSCC [diethyl sulfide]	54%	15%	39%	33.3%	–
O=C(CCl)C(Cl)Cl [1,1,3-Trichloroacetone]	–	–	–	5.6%	–
C=CCSSCC=C [Allyl Disulfide]	–	–	–	0.0%	–
C=CCCCCC [1-heptene]	19%	5%	14%	–	Response (%) [1, 7]: 4%; Response with Ace (%) [1]: 34%; Δ [(Resp with Ace) − Resp] (%) [1]: 30%; Response Avg % [1, 6]: 5.0%
CCCCCCCCCO [1-Nonanol]	–	–	–	4.1%	–
Nc1ccccn1 [2-Aminopyridine]	–	–	–	0.0%	–

SMILES	Response with L-LA (%) [1, 3]	Response (%) [1, 4]	Δ [(Resp with LA) − Resp] (%) [1]	% caught ([2]; single treatment, 500 μL)	also measured
CCOCC [diethyl ether]	56%	25%	31%	–	–
CO [methanol]	66%	10%	56%	–	–
CO [MeOH]	–	–	–	–	Response Avg % [1, 5]: 10.0%
CC(Cl)(Cl)Cl [1,1,1-Trichloroethane]	–	–	–	61.0%	–
CC(C)C=O [Isobutanal]	–	–	–	–	Response Avg % [1, 5]: 13.0%
CN1CCNCC1 [1-Methylpiperazine]	–	–	–	1.3%	–
Cc1ccccc1 [toluene]	59%	7%	52%	–	–
O=CO [Formic Acid]	–	–	–	–	% caught ([2]; in vivo): 0.0%
CCS [Ethanethiol]	–	–	–	40.0%	–
CC(C)C=O [isobutyraldehyde]	32%	13%	19%	–	–
OCc1ccco1 [Furfuryl Alcohol]	–	–	–	46.7%	–
CCCS [1-Propanethiol]	–	–	–	24.0%	–
O=C(O)CC(O)C(=O)O (racemic) [DL-Malic Acid]	–	–	–	–	% caught ([2]; single substance, Crys dish (crystalline solid)): 0.0%
O=C(O)C(O)C(O)C(=O)O (stereo not shown) [tartaric acid]	–	–	–	–	Response (%) [1, 7]: 9%; Response with Ace (%) [1]: 67%; Δ [(Resp with Ace) − Resp] (%) [1]: 58%
C=CCCCCCCCCCCCC [1-Tetradecene]	–	–	–	1.4%	–
C[C@@H](O)C(=O)O [D-lactic acid]	–	–	–	–	Response (%) [1, 7]: 8%; Response with Ace (%) [1]: 82%; Δ [(Resp with Ace) − Resp] (%) [1]: 74%
CC=O [acetaldehyde]	29%	8%	21%	–	–
C=O [formaldehyde (37%), formaldehyde]	5%	1%	4%	–	–
CC=CC(=O)CC [4-Hexen-3-one]	–	–	–	79.2%	–
N#CC(Cl)(Cl)Cl [Trichloroacetonitrile]	–	–	–	65.3%	–
CCCCCCC(=O)CCC [4-Decanone]	–	–	–	7.8%	–
CCOC(C)=O [Ethyl Acetate]	–	–	–	28.4%	–

SMILES	Response with L-LA (%) [1, 3]	Response (%) [1, 4]	Δ [(Resp with LA) − Resp] (%) [1]	% caught ([2]; single treatment, 500 μL)	also measured
CCCCCC(=O)C(C)C [2-Methyl-3-Octanone]	–	–	–	30.1%	–
CCCCCCCCCCCC(=O)O [Laurie Acid]	–	–	–	1.3%	–
ClC=C(Cl)Cl [Trichloroethylene]	–	–	–	57.9%	–
c1cnccn1 [Pyrazine]	–	–	–	29.3%	–
CC(C)CC(=O)CC(C)C [2,6-Dimethyl-4-Heptanone]	–	–	–	18.7%	–
CCCCCCCCCC(C)=O [2-Undecanone]	–	–	–	4.2%	–
CCC(=O)O [propanoic acid]	1%	3%	−2%	–	Response Avg % [1, 6]: 3.0%
O=CC(=O)O [Glyoxylic Acid]	–	–	–	1.3%	–
C=CCCCCCC [1-octene]	42%	38%	4%	–	Response (%) [1, 7]: 38%; Response with Ace (%) [1]: 63%; Δ [(Resp with Ace) − Resp] (%) [1]: 25%
CC(C)S [2-Thiopropane]	–	–	–	20.5%	–
CCCC(=O)C(C)=O [2,3-Hexanedione]	–	–	–	2.7%	–
ClCC(Cl)Cl [1,1,2-Trichloroethane]	–	–	–	64.4%	–
O=C(O)CO [glycolic acid]	–	–	–	–	Response (%) [1, 7]: 17%; Δ [(Resp with Ace) − Resp] (%) [1]: 64%
C=CCCCCCCC [1-nonene]	8%	6%	2%	–	Response (%) [1, 7]: 6%; Response with Ace (%) [1]: 54%; Δ [(Resp with Ace) − Resp] (%) [1]: 48%
CCCCC(=O)C(C)C [2-Methyl-3-Heptanone]	–	–	–	34.7%	–
CCCC(=O)OC [Methylbutyrate]	–	–	–	55.8%	–
C=CC(O)CCCCC (stereo not shown) [1-Octen-3-ol]	–	–	–	24.0%	–
CCCCCCCCCCCC(C)=O [2-Tridecanone]	–	–	–	1.3%	–
BrC(Br)Br [bromoform]	64%	27%	37%	–	–
CC(=O)CCC(C)=O [Acetonylacetone]	–	–	–	0.0%	–
CCCCCC(=O)CCCCC [6-Undecanone]	–	–	–	3.9%	–
